Where “and” joins values, the source holds several entries; their conditions need not be identical. Equal values may be shown once.
How the values were obtained:
[1] = biological target: T1, Cysteinyl leukotriene receptor 1 (Cavia porcellus, UniProt Q2NNR5); assay: Inhibition of [3H]LTD4 binding on guinea-pig lung membranes; assay type: tissue-based, Membrane
T1 sequence (Q2NNR5 whole entry): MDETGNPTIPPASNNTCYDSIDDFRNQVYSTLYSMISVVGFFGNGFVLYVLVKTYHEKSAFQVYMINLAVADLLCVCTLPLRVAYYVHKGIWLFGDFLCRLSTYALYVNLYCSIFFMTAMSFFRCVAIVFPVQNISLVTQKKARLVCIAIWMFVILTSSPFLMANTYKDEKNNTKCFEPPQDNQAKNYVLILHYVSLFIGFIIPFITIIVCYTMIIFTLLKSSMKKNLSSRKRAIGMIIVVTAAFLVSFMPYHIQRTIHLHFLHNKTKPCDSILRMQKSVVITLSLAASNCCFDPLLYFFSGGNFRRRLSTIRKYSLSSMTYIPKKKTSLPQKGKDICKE

[2] = test system: Monkey; assay: Inhibition of LTD4-induced bronchoconstriction in conscious squirrel monkey; assay type: functional
[3] = test system: Mus musculus; assay: […] effect on peroximal enzyme induction (PEI) over control animals (mice) after 4 days dosing at 400 mg/Kg perorally; assay type: functional
[4] = test system: Mus musculus; assay: […] effect on the liver weight in mice after 4 days dosing at 400 mg/Kg perorally; assay type: functional
[5] = test system: Monkey; assay: […] inhibition of peptidoleukotriene -induced reduction in dynamic compliance in conscious squirrel monkey at a dose of 0.1 mg/Kg; assay type: functional
[6] = species on record: Cavia porcellus; assay: Inhibition of LTD4-induced contraction of guinea-pig tracheal chains; assay type: functional, Trachea
[7] = test system: Monkey; assay: […] inhibition of peptidoleukotriene -induced reduction in dynamic compliance in conscious squirrel monkey at a dose of 0.03 mg/Kg; assay type: functional
[8] = test system: Mus musculus; assay: Compound was evaluated for its effect on the liver weight in mice after 4 days dosing at 400 mg/Kg perorally; assay type: functional

| Structure (SMILES) | IC50 [1] | also measured |
| --- | --- | --- |
| Cc1sc(/C=C/c2cccc([C@@H](CCc3ccccc3C(C)(C)O)SCC3(CC(=O)O)CC3)c2)nc1C(C)C | 12.8 nM and 5.2 nM | – |
| CC(C)(O)c1ccccc1CC[C@@H](SCC1(CC(=O)O)CC1)c1cccc(/C=C/c2nc(-c3ccccc3)cs2)c1 | 11 nM and 6.7 nM | – |
| CC(C)(O)c1ccccc1CC[C@@H](SCC1(CC(=O)O)CC1)c1cccc(/C=C/c2nc(C3CCCC3)cs2)c1 | 1.4 nM and 0.8 nM | – |
| CC(C)(O)c1ccccc1CC[C@@H](SCC1(CC(=O)O)CC1)c1cccc(/C=C/c2nc3cc(F)c(F)cc3s2)c1 | 0.8 nM | – |
| CC(C)(O)c1ccccc1CC[C@@H](SCC1(CC(=O)O)CC1)c1cccc(/C=C/c2nc3c(s2)CCC3)c1 | 3 nM and 4.6 nM | – |
| CC(C)(O)c1ccccc1CC[C@@H](SCC1(CC(=O)O)CC1)c1cccc(/C=C/c2nc3cc(Cl)ccc3s2)c1 | 7.7 nM and 6 nM | – |
| CC(C)(O)c1ccccc1CC[C@@H](SCC1(CC(=O)O)CC1)c1cccc(/C=C/c2nc3c(s2)CCCC3)c1 | 1.5 nM | – |
| COc1ccc2nc(/C=C/c3cccc([C@@H](CCc4ccccc4C(C)(C)O)SCC4(CC(=O)O)CC4)c3)sc2c1 | 47.6 nM | – |
| CN(C)C(=O)CCS[C@H](SCCC(=O)O)c1cccc(/C=C/c2ccc3ccc(Cl)cc3n2)c1 [VERLUKAST] | 3.9 nM | RL [2]: 59%; PEI [3]: 65; Weight [4]: 0%; Cdyn [5]: 56%; pKb [6]: 8.9 |
| CC(C)c1nc(/C=C/c2cccc([C@@H](CCc3ccccc3C(C)(C)O)SCC3(CC(=O)O)CC3)c2)sc1Cl | 170 nM and 197 nM | – |
| CC(C)(O)c1ccccc1CC[C@@H](SCC1(CC(=O)O)CC1)c1cccc(/C=C/c2nc3ccccc3s2)c1 | 16.8 nM | – |
| CC(C)(O)c1ccccc1CC[C@@H](SCC1(CC(=O)O)CC1)c1cccc(/C=C/c2nc3cc(F)ccc3s2)c1 | 3.3 nM | Cdyn [7]: 100%; RL [2]: 73%; PEI [3]: 120; Weight [4]: 12%; pKb [6]: 8.8 |
| CC(CC(F)(F)F)c1csc(/C=C/c2cccc([C@@H](CCc3ccccc3C(C)(C)O)SCC3(CC(=O)O)CC3)c2)n1 (some centres undefined) | 0.7 nM and 1 nM | – |
| CC(C)(O)c1ccccc1CC[C@@H](SCC1(CC(=O)O)CC1)c1cccc(/C=C/c2nc(C3CC3)cs2)c1 | 1.7 nM and 3.3 nM | – |
| CC(C)(C)c1csc(/C=C/c2cccc([C@@H](CCc3ccccc3C(C)(C)O)SCC3(CC(=O)O)CC3)c2)n1 | 2 nM and 3.3 nM | – |
| CC(C)(O)c1ccccc1CC[C@@H](SCC1(CC(=O)O)CC1)c1cccc(/C=C/c2nc(CSc3ccccc3)cs2)c1 | 42.2 nM | – |
| COc1ccc(-c2csc(/C=C/c3cccc([C@@H](CCc4ccccc4C(C)(C)O)SCC4(CC(=O)O)CC4)c3)n2)cc1 | 98.7 nM and 138 nM | – |
| CC(C)(O)c1ccccc1CC[C@@H](SCC1(CC(=O)O)CC1)c1cccc(/C=C/c2nc(-c3ccc(Cl)cc3)cs2)c1 | 79.3 nM and 99.7 nM | – |
| CC(C)(O)c1ccccc1CC[C@@H](SCC1(CC(=O)O)CC1)c1cccc(/C=C/c2nc3cc(C(F)(F)F)ccc3s2)c1 | 7.5 nM and 11.6 nM | – |
| CC(C)(O)c1ccccc1CC[C@@H](SCC1(CC(=O)O)CC1)c1cccc(/C=C/c2nc(C3CCCCC3)cs2)c1 | 2.1 nM | – |
| CC(C)(O)c1ccccc1CC[C@@H](SCC1(CC(=O)O)CC1)c1cccc(/C=C/c2nccs2)c1 | 381 nM | – |
| CC(C)(O)c1ccccc1CC[C@@H](SCC1(CC(=O)O)CC1)c1cccc(/C=C/c2nc(-c3ccc(F)cc3)cs2)c1 | 6.7 nM and 15.4 nM | – |
| CC(C)c1csc(/C=C/c2cccc([C@@H](CCc3ccccc3C(C)(C)O)SCC3(CC(=O)O)CC3)c2)n1 | 1.9 nM | Cdyn [7]: -8%; RL [2]: 40%; PEI [3]: 62; Weight [8]: 9%; pKb [6]: 9.1 |
| CC(C)(O)c1ccccc1CC[C@@H](SCC1(CC(=O)O)CC1)c1cccc(/C=C/c2nc(C3CCC3)cs2)c1 | 0.6 nM and 0.5 nM | – |
